Measured values from patent US6867305B2, “Synthesis of epothilones, intermediates thereto and analogues thereof” (Sloan-Kettering Institute for Cancer Research, priority 1996, dated 2005).
Values joined by “and” are separate entries in the source; they are usually repeats but may differ in a detail not shown here. Equal values may be shown once. Read-outs that look alike come from different tables or passages of the source. Starred links: 1 amine or outer side, 2 acyl side, 3 side chain; linkers in the order of their positions; H or OH if unused. Positions of bridges follow the written chain, without caps; N, C: chain ends. Non-standard residues stand in square brackets, D forms with d. Residues, ends and D or L forms follow the SMILES beside them. Chains are numbered I, II in the order given. Actinocin(9to1) = Cc1c2oc3c(C)ccc(C(=O)[*:1])c3nc-2c(C(=O)[*:2])c(N)c1=O; NMeV = CN[C@H](C(=O)O)C(C)C; Sar = CNCC(=O)O

What was measured:
[1] = test system: DC-3F hamster lung fibroblasts; assay: Tumor cell growth inhibition in vitro; assay type: cell-based; details: read-out: IC50
Description: (§1) The fresh medium containing each drug was replenished every 7-14 days. […] In each case ,the drug-exposed cells were resuspended in fresh media for a minimum of 4 days before the experiments for the cell-growth inhibition was carried out.
(§2) The cells were cultured at an initial density of 2-5×10^4 cells per ml. They were maintained in a 5% CO2-humidified atmosphere at 37° C. in RPMI mediun 1640 (GIBCO/BRL) containing penicillin (100 units/ml), streptomycin (100 μg/ml) (GIBCO/BRL), and 5% heat-inactivated fetal bovine serum. For solid tumor cells growing in a monolayer (such as MCF-7/Adr), cytotoxicitiy of the drug was determined in 96-well microtiter plates by using the sulforhodamine B method as described by Skehan et al (23) for measuring the cellular protein content. For cells that were grown in suspension (such as CCRF-CEM and its sublines), cytotoxicitiy was measured by using the 2,-3-bis(2-methoxy-4-nitro-5-sulfophenyl)-5carboxanilide)-2H terazodium hydroxide (XTT)-microculture tetrazonium method (24) in duplicate in 96-well microtiter plates. For both methods, the absorbance of each well was measured with a microplate reader (EL-340, Bio-Tek, Burlington, Vt.). Each run entailed six or seven concentrations of the tested drugs. Dose-effect relationship data were analyzed with the median-effect plot (25) by using a previously described computer program (26).

[2] = test system: K562 chronic myelocytic leukemia xenograft; assay: Human tumor xenograft in nude mice; assay type: in vivo
Description: FIG. 34 depicts tumor size in nude mice bearing human leukemia […] tumor following 6 mg/kg C-15-Aza-EpoB, Q2D×6 and 30 mg/kg dEpoF, Q2ED×6 (i.v. infusion […].). K562 tumor cells (1×10^7 in 0.2 mL) were inoculated to nude mice on day 0. Mice were treated with 6 mg/kg aza-EpoB, 6 h-i.v. infusion on days 20, 22, 24, 26, 28 and 30 (Δ, n=3). The same group of mice were then treated with 30 mg/kg dEpoF, 6 h-i.v. infusion on days 42, 44, 46, 48, 52, and 54 (Δ, n=3). […] The control mice (∘, n=3) received vehicle only.
K562 tumor cells (1×10^7, in 0.2 ml/mouse) were implanted s.c. on day 0. […] The control mice (∘, n=4) received vehicle, Cremophor-ethanol (1:1), only. The vertical bars indicate mean tumor size in mm^3±S.E.
(§3) Depending on the tumor type, treatment started on day 10 to day 21 when subcutaneous tumor size reached 35-200 mm^3, except otherwise indicated. Tumor size and body-weight were recorded every other day (Q2D) and, for humane reasons, the animals were sacrificed when tumor size reached ≧10% of body-weight. Each group, including untreated control, consisted of 3-5 animals unless otherwise indicated.
(§4) Athymic nude mice bearing the nu/nu gene were used for all human tumor xenografts. Outbred, Swiss-background mice were obtained from Charles River Laboratories. Male mice 8 weeks or older weighing 22 g and up were used for most experiments. The drug was administered via the tail vein for 6 hr.-i.v. infusion. Each individual mouse was confined in a perforated Falcon polypropylene tube restrainer for drug administration. Tumor volume was assessed by measuring length×width×height (or width) using a caliper. The programmable Harvard PHD2000 syringe pump (Harvard Apparatus) with multi-track was used for i.v. infusion. […] All animal studies were conducted in accordance with the guidelines of the National Institutes of Health “Guide for the Care and Use of Animals” and the protocol approved by the Memorial Sloan-Kettering Cancer Center's Institutional Animal Care and Use Committee. In keeping with the policy of this committee for the humane treatment of tumor-bearing animals, mice were euthanized when tumors reached ≧10% of their total body weight.
(§5) Human tumor cells (5×10^6) or tumor tissue (30-50 mg) were implanted s.c. flank in nu/nu mice (Charles River Laboratories, Wilmington, Mass.). When tumor grew to a specified size, treatment was started by every-other day×5 with 6 hr i.v.-infusion, unless otherwise indicated. Tumor volume was measured with calipers in three dimensions (length×width×height or width). Body-weight changes and lethality were monitored every other day.

[3] = test system: PC-3 prostate adenocarcinoma xenograft; assay: Human tumor xenograft in nude mice; assay type: in vivo; details: PC-3, i.v. or i/p.
Description: as §3, §4, §5

MCF-7/Adr = assay: Tumor cell growth inhibition in vitro; assay type: cell-based, human; details: MCF-7/Adr
Description: as §2, with “They were maintained in a 5% CO2-humidified atmosphere at 37° C. in RPMI mediun 1640 (GIBCO/BRL) containing penicillin (100 units/ml), streptomycin (100 μg/ml) (GIBCO/BRL), and 5% heat-inactivated fetal bovine serum.” left out

[4] = test system: MCF-7 human mammary adenocarcinoma; assay: Tumor cell growth inhibition in vitro; assay type: cell-based; details: read-out: IC50
Description: as §2, with “They were maintained in a 5% CO2-humidified atmosphere at 37° C. in RPMI mediun 1640 (GIBCO/BRL) containing penicillin (100 units/ml), streptomycin (100 μg/ml) (GIBCO/BRL), and 5% heat-inactivated fetal bovine serum.” left out

[5] = test system: MCF-7/Adr mammary xenograft; assay: Human tumor xenograft in nude mice; assay type: in vivo
[6] = test system: HCT-116 colon carcinoma xenograft; assay: Human tumor xenograft in nude mice; assay type: in vivo; details: HCT-116, i.v. infusion
Text: Therapeutic efficacy of cancer chemotherapeutic agents varies with various factors including the tumor models used and the dosage of drug and schedules and routes of administration. […] In the present studies, we intended to compare the therapeutic effects of drugs near their maximal tolerated doses by measuring the extent of body-weight decreases and/or lethality.
as §3, §4, §5

[7] = Body-weight decrease and lethality in tumor-bearing nude mice; details: nude mice
Description: as §3
Essential features of useful cancer therapeutic agent involve not only high efficiency against cancer but also low toxicity toward the host, especially toward vital organs or functions [i.e. wide therapeutic window or high therapeutic index (LD50/ED50)].
as §5

[8] = test system: MX-1 human mammary carcinoma; assay: Tumor cell growth inhibition in vitro; assay type: cell-based
Description: as §2, with “They were maintained in a 5% CO2-humidified atmosphere at 37° C. in RPMI mediun 1640 (GIBCO/BRL) containing penicillin (100 units/ml), streptomycin (100 μg/ml) (GIBCO/BRL), and 5% heat-inactivated fetal bovine serum.” left out

[9] = test system: UL-3-C ovarian adenocarcinoma; assay: Tumor cell growth inhibition in vitro; assay type: cell-based, human; details: read-out: IC50
Description: as §1, §2

[10] = test system: MX-1 mammary carcinoma xenograft; details: MX-1, i.p., ref 19 (Table 4)
B16 Melanoma = assay type: in vivo, murine; details: B16 Melanoma, i/p, maximal tolerated doses

Structure (SMILES): Cc1c2oc3c(C)ccc(C(=O)N[C@@H]4C(=O)N[C@H](C(C)C)C(=O)N5CCC[C@H]5C(=O)N(C)CC(=O)N(C)[C@@H](C(C)C)C(=O)O[C@@H]4C)c3nc-2c(C(=O)N[C@@H]2C(=O)N[C@H](C(C)C)C(=O)N3CCC[C@H]3C(=O)N(C)CC(=O)N(C)[C@@H](C(C)C)C(=O)O[C@@H]2C)c(N)c1=O [Actinomycin D, actinomycin D, reference compound] (I: T[dV]P[Sar][NMeV] / II: T[dV]P[Sar][NMeV]; ester I:1-I:C, II:1-II:C; linker I:N-II:N via Actinocin(9to1))
- IC50 [1]: 0.25 nM and 0.31 nM

Structure (SMILES): COc1cccc2c1C(=O)c1c(O)c3c(c(O)c1C2=O)C[C@@](O)(C(=O)CO)C[C@@H]3O[C@H]1C[C@H](N)[C@H](O)[C@H](C)O1 [Adriamycin, doxorubicin, reference compound]
- Therapeutic Effect Rank Order ([2]; K562, i.v. infusion, FIG. 3 & 4): dEpoB>>>VBL> Taxol> Adriamycin
- therapeutic effect ([2]; K562, dEpoB 30 mg/kg, Taxol 20 mg/kg 6 hr i.v. infusion, Adriamycin 3 mg/kg, vinblastine 2.5 mg/kg i.v., every other day from day 20 (FIG. 36)): only partial curative or remissive effects
- Therapeutic Effect Rank Order [3]: Taxol>dEpoB>>Adriamycin
- IC50 (MCF-7/Adr; Homo sapiens, NCI/ADR-RES): 280 nM
- IC50 (MCF-7/Adr): 316 nM
- IC50 ([4]; Homo sapiens, MCF7, MCF-7): 81 nM
- IC50 ([4]; MCF-7): 90 nM
- Therapeutic Effect Rank Order ([5]; i.p., ref 19 (Table 5)): dEpoB>Camptothecin>Adriamycin>Taxol
- Therapeutic Effect Rank Order ([5]; i.v. infusion): dEpoB>>VP-16, Taxol>VBL, Adriamycin

Structure (SMILES): CCc1c2c(nc3ccc(OC(=O)N4CCC(N5CCCCC5)CC4)cc13)-c1cc3c(c(=O)n1C2)COC(=O)[C@]3(O)CC [CPT-11, Irinotecan, reference compound]
- Therapeutic Effect Rank Order [6]: Taxol, CPT-11≈dEpoB, dEpoF

Structure (SMILES): C/C(=C\c1csc(C)n1)[C@@H]1C[C@@H]2O[C@]2(C)CCC[C@H](C)[C@H](O)[C@@H](C)C(=O)C(C)(C)[C@@H](O)CC(=O)O1 [EpoB, epothilone B, reference compound]
- drop in body-weight that led to lethality [7]: 14-20%
- IC50 (UL-3-B/Taxol; UL-3-B/Taxol): 1.24 nM
- cross-resistance (fold of resistance vs parent cell line) (UL-3-B/Taxol; UL-3-B/Taxol vs UL-3-C): 2.1 x
- IC50 [8]: 1.84 nM
- IC50 [9]: 0.58 nM
- Therapeutic Effect Rank Order [10]: dEpoB>Camptothecin>Taxol>VBL, EpoB
- Therapeutic Effect Rank Order (B16 Melanoma): dEpoB>Taxol>>EpoB
